Test results published in patent US20250223628A1, “METHODS OF IMPROVING SURVIVAL AND ELIMINATING TREATMENT-LIMITING TOXICITIES OF DICHLOROACETATE IN PATIENTS WITH PYRUVATE DEHYDROGENASE COMPLEX DEFICIENCY” (SAOL INTERNATIONAL DEVELOPMENT LTD., priority 2024, published 2025).
Where two headings read alike, the source gives them in different places.

Key:
[1] = system: patients with PDCD; experiment: Survival analysis of DCA treatment cohort versus DeBrosse natural history cohort; assay type: in vivo, human; settings: for Adjusted Odds Ratio (95% CI): DCA vs natural history
Procedure: As a result, an analysis procedure was identified that used the data available in the DeBrosse natural history study to assess whether or not DCA extended life. The analysis was conducted to answer the following questions: • a. Did the year of birth have any effect on survival? For example, has standard of care improved. • b. Is the primary driver of survival differences from natural history driven by the ketogenic diet, the current standard of care, although empirical approach to managing PDCD patients? • c. Once the population is controlled for an index age, gender and age of disease onset, does DCA provide a survival benefit? • d. Once the population is controlled for an index age and age of disease onset, does DCA provide a survival benefit? • e. Once the population has the maximum duration of follow-up, including with patients that discontinued treatment, does DCA provide a survival benefit?
After accounting for two patients with multiple exclusion criteria, 34 patients (14 males and 20 females) from the DeBrosse study remain for potential matching for the current analyses.
Baseline characteristics related to drug and non-drug treatment, age at the earliest recorded of first related symptom, initiation of the ketogenic diet or diagnosis and other baseline demographics were compared for each analysis. It was notable that the Phase III cohort had more females. This was controlled by conducting a 1:1 matched cohort in the primary analysis that requires gender matching.
A summary of all analyses conducted with both Kaplan-Meier log-rank statistics and hazard/odds ratio reductions are provided below: […]

[2] = cited from earlier work
[3] = system: patients with congenital lactic acidosis (CLA); settings: 25 mg/kg broken into two daily doses, cited from earlier work
[4] = system: patients with PDCD; experiment: Prospective, randomized, double-blind, placebo-controlled crossover study with GSTZ1 haplotype-based DCA dosing and open-label extension; assay type: in vivo, human
Procedure: A prospective, randomized, double-blind, placebo-controlled crossover study was conducted in patients with PDCD. This study was the first study to prospectively use GSTZ1 haplotype testing to identify a dose that may help to mitigate the risk of peripheral neuropathy from chronic administration of DCA. These patients were treated with either DCA or placebo for 4 months, provided placebo for a 1-month washout period and then were placed on the placebo or DCA, whichever they had not taken prior. Patients then had the option to continue on open-label DCA until the ultimate completion of the study or regulatory approval. 34 PDCD patients were recruited into the study. 7 (21%) of these patients were prospectively identified as “slow metabolizers”. Rather than having a dose of 25 mg/kg/day, these patients were provided DCA doses at 12.5 mg/kg/day. Both dosing groups took DCA in two equal, weight-based doses. This was the first prospective study completed using the haplotype testing and conducted solely in the PDCD patient population.
The study had anticipated a 20% dropout rate due to death or peripheral neuropathy.

[5] = Abdelmak 2013, Congenital Lactic Acidosis, 8 total patients
[6] = Dunbar 2014, Recurrent Malignant Brain Tumor, 8 total patients
[7] = Kaufmann 2006, MELAS, 15 total patients
[8] = Michelakis 2017, Pulmonary Arterial Hypertension, 20 total patients
[9] = Stacpoole 2008, Congenital Lactic Acidosis, 36 total patients

O=C(O)C(Cl)Cl [DCA, Dichloroacetate]
Adjusted Odds Ratio (95% CI) ([1]; Full Cohort Comparison, multivariate P 0.0065): 0.014
Adjusted Odds Ratio (95% CI) ([1]; Matched on Age and Sex, Excluding 1980s Patients with Extended Follow-Up, multivariate P 0.0055): 0.023
Adjusted Odds Ratio (95% CI) ([1]; Matched on Age and Sex, Excluding 1980s Patients, multivariate P 0.0033): 0.0072
Adjusted Odds Ratio (95% CI) ([1]; Matched on Age, multivariate P 0.0012): 0.0071
Adjusted Odds Ratio (95% CI) ([1]; Matched on Sex and Follow-Up Duration, multivariate P 0.024): 0.026
Adjusted Odds Ratio (95% CI) ([1]; Primary Analysis with Extended Follow-Up, multivariate P 0.0029): 0.013
Adjusted Odds Ratio (95% CI) ([1]; Primary Analysis: Matched on Age and Sex, multivariate P 0.0061): 0.011
DCA Treatment Cohort Mortality Rate (95% CI) ([1]; Full Cohort Comparison, N 33, log rank P 0.003): 0.00
DCA Treatment Cohort Mortality Rate (95% CI) ([1]; Matched on Age and Sex with Replacement with Extended Follow-Up, N 31, log rank P 0.0443): 1.38
DCA Treatment Cohort Mortality Rate (95% CI) ([1]; Matched on Age and Sex with Replacement, N 31, log rank P 0.0295): 0.00
DCA Treatment Cohort Mortality Rate (95% CI) ([1]; Matched on Age and Sex with Unknown Onset Imputed at 0, N 28, log rank P 0.0273): 0.00
DCA Treatment Cohort Mortality Rate (95% CI) ([1]; Matched on Age and Sex with Unknown Onset Imputed at 0 with Extended Follow-Up, N 28, log rank P 0.0357): 1.55
DCA Treatment Cohort Mortality Rate (95% CI) ([1]; Matched on Age and Sex, Excluding 1980s Patients with Extended Follow-Up, N 25, log rank P 0.0899): 1.74
DCA Treatment Cohort Mortality Rate (95% CI) ([1]; Matched on Age and Sex, Excluding 1980s Patients, N 25, log rank P 0.0255): 0.00
DCA Treatment Cohort Mortality Rate (95% CI) ([1]; Matched on Age, N 32, log rank P 0.0019): 0.00
DCA Treatment Cohort Mortality Rate (95% CI) ([1]; Matched on Sex and Follow-Up Duration, N 28, log rank P 0.0211): 0.00
DCA Treatment Cohort Mortality Rate (95% CI) ([1]; Primary Analysis with Extended Follow-Up, N 28, log rank P 0.0357): 1.55
DCA Treatment Cohort Mortality Rate (95% CI) ([1]; Primary Analysis: Matched on Age and Sex, N 28, log rank P 0.0273): 0
Peripheral Neuropathy Adverse Event Rate [2, 5]: 38%
Peripheral Neuropathy Adverse Events [2, 5]: 3
Peripheral Neuropathy Adverse Event Rate [2, 6]: 25%
Peripheral Neuropathy Adverse Events [2, 6]: 2
Peripheral Neuropathy Adverse Event Rate [2, 7]: 100%
Peripheral Neuropathy Adverse Events [2, 7]: 15
Peripheral Neuropathy Adverse Event Rate [2, 8]: 25%
Peripheral Neuropathy Adverse Events [2, 8]: 5
Peripheral Neuropathy Adverse Event Rate [2, 9]: 36%
Peripheral Neuropathy Adverse Events [2, 9]: 13
Peripheral Neuropathy Adverse Events ([2]; Total of five studies, 87 total patients): 38
Peripheral Neuropathy Adverse Event Rate ([2]; Total of several studies across multiple disease states, 87 total patients): 44%
Dose required for a similar pharmacokinetic exposure ([2]; slow metabolizer group of GSTZ1 haplotypes, fraction of the dose): roughly ½
Recovery from peripheral neuropathy exhibited during DCA administration ([2]; time to recovery): ≤ 9 months
Patients who experienced peripheral neuropathy ([3]; double blind portion): 36%
Patients who experienced peripheral neuropathy ([3]; long-term extension arm): 38%
Completion of the double-blind portion ([4]; 34 PDCD patients, 25 or 12.5 mg/kg/day by haplotype): all of the patients completed
Dropouts for other reasons ([4]; double-blind portion): zero
Events of peripheral neuropathy ([4]; double-blind study): zero
Events of neuropathy possibly related to therapy ([4]; open-label phase, occurred after 18 months of exposure): one
